The text below walks through data of patent US6080733A, “Thioureido-cyclodextrins, utilized in particular to solubilize anti-tumor, and antiparasitic agents and their preparation processes” (Centre National de la Recherche Scientifique, priority 1996, dated 2000).

Values joined by “and” are separate entries in the source; they are usually repeats but may differ in a detail not shown here. Equal values may be shown once.

The term solubility denotes how much of the substance goes into solution per volume. Lower therefore signals a poorly soluble substance.

The conditions of series [1]: cited from earlier work.
Series [2] in a line: solubility in water of the thioureido-cyclodextrins. The series is classed as physicochemical.

As to `CC(=O)O[C@@]12CO[C@@H]1C[C@H](O)[C@@]1(C)C(=O)[C@H](O)C3=C(C)[C@@H](OC(=O)[C@H](O)[C@@H](NC(=O)OC(C)(C)C)c4ccccc4)C[C@@](O)([C@@H](OC(=O)c4ccccc4)[C@H]21)C3(C)C` [Taxotere], in series [1] (encapsulated in 6^I -S-α-maltosyl-6^I -thiocyclo-maltaheptaose (WO-A-95/19994)), the “solubility in water of Taxotere, raised by encapsulation” value was 6500 µg/mL. For the same compound, in series [1] (without cyclodextrin), the “solubility in water of Taxotere” value is 4 µg/mL.

For `CO[C@H]1O[C@H](CNC(=S)NC[C@H]2O[C@@H]3O[C@H]4[C@H](O)[C@@H](O)[C@@H](O[C@H]5[C@H](O)[C@@H](O)[C@@H](O[C@H]6[C@H](O)[C@@H](O)[C@@H](O[C@H]7[C@H](O)[C@@H](O)[C@@H](O[C@H]8[C@H](O)[C@@H](O)[C@@H](O[C@H]9[C@H](O)[C@@H](O)[C@@H](O[C@H]2[C@H](O)[C@H]3O)O[C@@H]9CO)O[C@@H]8CO)O[C@@H]7CO)O[C@@H]6CO)O[C@@H]5CO)O[C@@H]4CO)[C@@H](OC(C)=O)[C@H](OC(C)=O)[C@H]1OC(C)=O` [compound n°3], in series [2], the solubility in water was 558 g/l and 373 mM.

Take `CO[C@H]1O[C@H](CNC(=S)NC[C@H]2O[C@@H]3O[C@H]4[C@H](O)[C@@H](O)[C@@H](O[C@H]5[C@H](O)[C@@H](O)[C@@H](O[C@H]6[C@H](O)[C@@H](O)[C@@H](O[C@H]7[C@H](O)[C@@H](O)[C@@H](O[C@H]8[C@H](O)[C@@H](O)[C@@H](O[C@H]9[C@H](O)[C@@H](O)[C@@H](O[C@H]2[C@H](O)[C@H]3O)O[C@@H]9CO)O[C@@H]8CO)O[C@@H]7CO)O[C@@H]6CO)O[C@@H]5CO)O[C@@H]4CO)[C@@H](O)[C@H](O)[C@H]1O` [compound n°2]: in series [2], the solubility is 710000 µg/mL and 518000 µM.

With `CNC(=S)NC[C@H]1O[C@@H]2O[C@H]3[C@H](O)[C@@H](O)[C@@H](O[C@H]4[C@H](O)[C@@H](O)[C@@H](O[C@H]5[C@H](O)[C@@H](O)[C@@H](O[C@H]6[C@H](O)[C@@H](O)[C@@H](O[C@H]7[C@H](O)[C@@H](O)[C@@H](O[C@H]8[C@H](O)[C@@H](O)[C@@H](O[C@H]1[C@H](O)[C@H]2O)O[C@@H]8CO)O[C@@H]7CO)O[C@@H]6CO)O[C@@H]5CO)O[C@@H]4CO)O[C@@H]3CO` [compound n°1, 6^I -desoxy-6^I -(N'-methylthioureido) cyclomaltoheptaose], the solubility in series [2] was 775000 µg/mL and 640000 µM.
